The nature of series [1]: Solubilities in water (20° C.). It is filed as physicochemical. From the text:
The compound according to the invention allows therefore to increase the solubility of curcumin derivatives in aqueous solutions which in turn enables IV administrations and/or increases their bioavailability. The table below presents the solubilities of the various intermediates.

For series [2], the system named is A549. The experiment in a line: MTT test, overall cell growth, A549. Conditions: read-out: IC50 A549. It is filed as cell-based, human. The method, then: (§1) MTT tests were performed in order to rapidly, i.e. within 5 days, measure the effect of compounds of this invention on the overall cell growth. […] The amount of formazan obtained at the end of the experiment, measured by means of a spectrophotometer, is directly proportional to the number of living cells. Optical density determination thus enabled a quantitative measurement of the effect of the investigated compounds as compared to the control condition (untreated cells) and/or to other reference compounds. Six human cancer cell lines described in Table 5 were used in the following MTT tests. These cancer cell lines cover six histological cancer types, being prostate, glioma, pancreas, colon, lung, and breast cancers. To perform the assay, cells were allowed to grow in 96-well micro-wells with a flat bottom with an amount of 100 μl of cell suspension per well with 1,000 to 4,000 cells/well depending on the cell type used. Each cell line was seeded in its appropriate culture medium. […] Each experiment was performed in sextaplicates. […] The micro-wells were subsequently incubated during 3 hours at 37° C. and centrifuged at 400 g during 10 minutes. MTT was removed and formazan crystals formed were dissolved in 100 μl DMSO. The micro-wells were shaken for 5 minutes and read on a spectrophotometer at wavelengths of 570 nm (maximal formazan absorbance). For each experimental condition, the mean optical density was calculated, allowing the determination of the percentage of remaining living cells in comparison to the control.

Series [3] relates to PC3. The experiment in a line: MTT test, overall cell growth, PC3. Format: cell-based, human. Conditions: read-out: IC50 PC3. How it is done: as §1
Series [4] deals with U-373MG. The experiment in a line: MTT test, overall cell growth, U-373MG. The settings on record: read-out: IC50 U-373MG. It is filed as cell-based, human. The method, then: as §1
Series [5] concerns MCF-7. The experiment in a line: MTT test, overall cell growth, MCF-7. The settings on record: read-out: IC50 MCF-7. Format: cell-based, human. How it is done: as §1
The test system of series [6] is LoVo. The experiment in a line: MTT test, overall cell growth, LoVo. Format: cell-based, human. The settings on record: read-out: IC50 LoVo. The method, then: as §1
The test system of series [7] is BxPC3. The experiment in a line: MTT test, overall cell growth, BxPC3. It is filed as cell-based, human. Conditions: read-out: IC50 BxPC3. The method, then: as §1
In series [8] the test system is PC3. The experiment in a line: Cellular imaging (phase-contrast videomicroscopy), PC3. Set-up: key to effect on cell morphology / effect on cell migration: +++: high effect: cell migration of most cells is drastically altered for most of the duration of the film; ++: medium effect: compound altering cell migration of an important proportion of the cells although less drastically; +: low effect: compound affecting cell migration of a small part of the cell population, or only for a limited part of the 72 h incubation; −: no effect: as compared to the control conditions, no difference is observed. It is filed as cell-based, human. Conditions: PC3, 10 μM; for GGRtreated/GGRcontrol: 72 h, global growth ratio; for effect on cell morphology: characterized by the same way as migration. The method, then: (§2) Cellular imaging relied on the use of computer-assisted phase-contrast microscopy making possible to film the behavior of living cells in culture dishes for several days. […] The experiment was conducted in quadruplicates. The behaviour of the cells, in terms of morphology, growth/death and migration were thus investigated. The analysis of the films was performed by two operators, working independently. The effect on cell migration was characterized as +++ (high effect: cell migration of most cells is drastically altered for most of the duration of the film), ++ (medium effect: compound altering cell migration of an important proportion of the cells although less drastically), + (low effect: compound affecting cell migration of a small part of the cell population, or only for a limited part of the 72 h incubation), - (no effect: as compared to the control conditions, no difference is observed). The effect on cell morphology was characterized by the same way. The effect on the overall growth was measured by counting the number of cells on the first (0 h) and the last image (72 h) of each film. The global growth ratio (GGR) was then deduced by dividing the number of cells on the last image by the number of cells on the first image. The ratio […], was further calculated thereby obtaining a value that describes the effect of compounds of the present invention on the overall cell growth.

The test system of series [9] is U-373 MG. The experiment in a line: Cellular imaging (phase-contrast videomicroscopy), U-373 MG. Format: cell-based, human. The settings on record: 10 μM, 72 h, global growth ratio. The method, then:
as §2

For series [10], the system named is isolated neutrophils stimulated by phorbol myristate acetate (PMA). The experiment in a line: ROS production by PMA-stimulated isolated neutrophils (chemiluminescence). It is filed as cell-based. The settings on record: FIG. 16. How it is done:
(§3) The ROS production and the release of MPO by activated neutrophils were measured by chemiluminescence and ELISA techniques, respectively (Franck et al., 2008, Physiol. Res. 57(4):577-87). The activity of purified MPO was measured by using an original method called […] (specific immune extraction followed by enzymatic detection) allowing the study of drug interaction with the enzyme without interferences of the medium (Franck et al., 2006, J Vet Diagn Invest, 18(4):326-34).

The test system is the same in series [11]. The experiment in a line: MPO release by activated neutrophils (ELISA). It is filed as cell-based. Conditions: FIG. 18. How it is done: as §3
The test system of series [12] is purified MPO. The experiment in a line: Activity of purified MPO (SIEFED). It is filed as biochemical. Conditions: FIG. 17. How it is done: as §3
A short description of series [13]: physchem. The settings on record: aqueous with cosolvent or surfactant or cyclodextrin.
Series [14] can be described thus: Influence of different cyclodextrins on curcumin solubility. Format: physicochemical. The settings on record: FIGS. 11a and 11b.
Series [15] has as its system SC-VII mouse head and neck cancer cells. The experiment in a line: SC-VII mouse head and neck orthotopic cancer model, survival. It is filed as in vivo. The settings on record: IP, NDS27 20 mg/kg 3 times per day, 5 days per week, 3 weeks, cisplatin 5 mg/kg 1 time per week, control vehicle. How it is done: To test the in vivo anti-cancer activity of the compound according to the invention, we made use of the SC-VII mouse head and neck orthotopic cancer model. SC-VII mouse head and neck cancer cells were cultivated in conventional culture medium containing supplementation in foetal calf serum and antibiotics (penicillin/streptomycin and gentamycin). 500 000 cancer cells were grafted in a serum free culture medium (50 μl) into the floor of the mouth of each mouse. 5 days after the graft, the 44 animals were divided into four groups of 11 mice. The treatments were as follows: • Group 1: mice treated with the vehicle alone (HP-beta-CD—L-Lysine solution) • Group 2: mice treated with cisplatin administered IP at the dosis of 5 mg/kg, 1 time per week during 3 weeks • Group 3: mice treated IP with the NDS27 compound according to the invention administered 3 times per day, 5 days per week during 3 weeks at the doses of 20 mg/kg • Group 4: mice treated with a combination of both treatments described for groups 2 and 3.
Mice were sacrificed when they lost 20% of their weight or when tumour reached 500 mm^2. Survival of the animals was followed and is illustrated in FIG. 8.

In brackets after ≈: the same amount, converted by molar mass. Like-named read-outs stand apart in the source and are kept apart here. Where only a bound is given, the exact number is not on record here.

Results on 7 compounds are retold here after US8772265B2, “Water soluble curcumin compositions for use in anti-cancer and anti-inflammatory therapy” (Universite Libre de Bruxelles, priority 2008, dated 2014).

On to `COc1cc(/C=C/C(=O)CC(=O)/C=C/c2ccc(O)c(OC)c2)ccc1O` [curcumin], for which the solubility is about 0.0003 mg/mL (≈ 0.000814 mM) in series [1] (Water (20° C.), read-out: solubility) and at most 100 mM in series [13]. In addition, the IC50 in [2] (Homo sapiens, A549, MTT, 72 hours, lung cancer cell line) was over 10 µM; in series [3] (Homo sapiens, PC-3, MTT, 72 hours, prostate cancer cell line), over 10 µM; in series [4] (Homo sapiens, U373 MG, MTT, 72 hours, glioma cell line) it was 8.1 µM; in [5] (Homo sapiens, MCF7, MTT, 72 hours, breast cancer cell line), over 10 µM; in series [6] (Homo sapiens, LoVo, MTT, 72 hours, colon cancer cell line) it was 9.3 µM; in [7] (Homo sapiens, BXPC-3, MTT, 72 hours, pancreas cancer cell line), 9.5 µM. In addition, the GGRtreated/GGRcontrol was 0.5 in [8] and 0.2 in [9]. Moreover, the “effect on cell morphology” value in series [8] (filmed 72 h) is “+”. For the same compound, the “inhibitory effect on ROS production / release” value in series [10] is listed as “dose-dependent inhibitory effects”. The “effect on MPO release by activated neutrophils” value in [11] is reported as “dose-dependent inhibitory effects”. Further, the “inhibitory effect on purified MPO activity” value in [12] is recorded as “dose-dependent inhibitory effects”.

The compound `CC(O)COC[C@H]1O[C@@H]2O[C@H]3[C@H](O)[C@@H](O)[C@@H](O[C@H]4[C@H](O)[C@@H](O)[C@@H](O[C@H]5[C@H](O)[C@@H](O)[C@@H](O[C@H]6[C@H](O)[C@@H](O)[C@@H](O[C@H]7[C@H](O)[C@@H](O)[C@@H](O[C@H]8[C@H](O)[C@@H](O)[C@@H](O[C@H]1[C@H](O)[C@H]2O)O[C@@H]8COCC(C)O)O[C@@H]7COCC(C)O)O[C@@H]6COCC(C)O)O[C@@H]5COCC(C)O)O[C@@H]4COCC(C)O)O[C@@H]3COCC(C)O` (stereo partly drawn) [HP-beta-CD, hydroxypropyl-beta-cyclodextrin] returned a solubility in [1] of 500 mg/mL (≈ 324 mM). In [14], the “effect of the cyclodextrin on curcumin solubility” value was “clearly increase the solubility of curcumin”.

In the case of `NCCCC[C@H](N)C(=O)O` [Lysine], in series [1] (20 °C, water), the solubility worked out at 640 mg/mL (≈ 4380 mM).

For the compound Curcumin Lysinate, the IC50 in series [2] (MTT, 72 hours, lung cancer cell line) is over 10 µM; in series [3] (MTT, 72 hours, prostate cancer cell line), over 10 µM; in series [4] (MTT, 72 hours, glioma cell line) it was 10 µM; in series [5] (MTT, 72 hours, breast cancer cell line), over 10 µM; in series [6] (MTT, 72 hours, colon cancer cell line) it was over 10 µM; in series [7] (MTT, 72 hours, pancreas cancer cell line) it was over 10 µM. Further, the GGRtreated/GGRcontrol turned out to be 0.4 in [8] and 0.2 in series [9]. Moreover, the “effect on cell migration” value in series [8] (filmed 72 h) is given as “++”. Further, the “effect on cell morphology” value in [8] (filmed 72 h) is “++”. In addition, the “inhibitory effect on ROS production / release” value in [10] is “dose-dependent inhibitory effects”. Besides, the “effect on MPO release by activated neutrophils” value in [11] is recorded as “dose-dependent inhibitory effects”. The “inhibitory effect on purified MPO activity” value in series [12] is “dose-dependent inhibitory effects”.

In series [1], “hydroxypropyl-beta-cyclodextrin complex of curcumin lysinate [NDS27]” had a solubility of 10 mg/mL.

Regarding `COc1cc(CCC(=O)CC(=O)CCc2ccc(O)c(OC)c2)ccc1O` [Tetrahydrocurcumin, tetrahydrocurcumin], the IC50 in series [2] (Homo sapiens, A549, 72 h) is over 10 µM; in [3] (Homo sapiens, PC-3, 72 h), over 10 µM; in series [4] (Homo sapiens, U373 MG, 72 h), over 10 µM; in [5] (Homo sapiens, MCF7, 72 h), over 10 µM; in series [6] (Homo sapiens, LoVo, 72 h) it was over 10 µM; in [7] (Homo sapiens, BXPC-3, 72 h) it was over 10 µM.

With `N.N.[Cl][Pt][Cl]` [cisplatin], the “T/C index (ratio of median survival of treated mice to control group)” value in [15] amounted to 163%.
